What was measured:
Format in all cases: binding
Nck1 SH2 domain = Nck1 SH2 domain (Homo sapiens, UniProt P16333); assay: SPOT peptide array; settings: GST-SH2 0.25 μM; for Array positive: membrane-bound peptide, 1 mM DTT, LiCor read-out
Excerpt: (§1) The use of addressable peptide arrays is a reproducible and semi-quantitative approach that has been extensively validated for studying protein interactions with peptide ligands. To investigate connections between SH2 domain proteins and their putative phosphorylated docking sites on cell surface receptors, we developed addressable arrays consisting of 192 phosphotyrosine peptides. This peptide set was assembled using 71 phosphotyrosine peptide motifs corresponding to all of the cytoplasmic tyrosine residues within the FGF receptors (FGFR1-4), insulin receptor (InsR) and IGF-1 receptor (IGF-1R) (Figure 1A). Activation of these receptors results in the phosphorylation of associated scaffold proteins, and so 75 phosphotyrosine peptides corresponding to a comprehensive list of tyrosine residues within insulin receptor substrates (IRS-1 and IRS-2) and fibroblast receptor substrates (FRS-2 and FRS-3) were included. In addition, 33 phosphotyrosine peptides were incorporated from the downstream signaling proteins PLC-γ1, p130Cas (BCAR1) and p62DOK1. […] These control peptides provide a reference and establish the empirical cut-off for designated binding interactions (Table 1). No discrimination was made against peptides on the basis of reported phosphorylation state in order to examine a diverse and unbiased set of motifs. The resulting set of 192 phosphotyrosine peptides and their corresponding position in the proteins of origin is noted in Additional file 1: Table S1. Addressable arrays were synthesized as membrane-bound 11-mer peptides using the SPOT synthesis technique. While the majority of SH2 domains recognize residues C-terminal to the phosphotyrosine in their cognate peptide ligands, additional contacts between SH2 domains and residues N-terminal to the phosphotyrosine are observed for the SH2 domain of Sh2d1a (SAP) and cannot be ruled out in other cases. Peptides were synthesized with six flanking residues C-terminal to the phosphotyrosine and four residues N-terminal to the phosphotyrosine.
(§2) SH2 domains were arrayed as GST fusion proteins and detected using anti-GST primary antibodies and near-infrared labeled secondary antibodies. In an effort to present a dataset with minimal false positives, we chose an empirical cutoff based on the array average across all peptide spots to classify interactions (Figure 1A). In cases where the intensity of the signal for an individual SH2-domain binding event exceeded the mean intensity of all the peptides on the membrane by three-fold were scored as “array positives” [22]. Non-binding was judged in cases where the intensity of a spot was less than the mean intensity of all spots on the membrane and these were scored as “array negatives”. Peptides with signal intensities between 1X and 3X mean were scored as “indeterminate” and ascribed as neither array positive binding interactions nor array-negative non-binders. […] This signature may be indicative of promiscuity differences between phosphopeptides or there may be a subset of peptides which interact in a nonspecific fashion with either the GST fusion tag or one of the antibodies used for detection, resulting in false positives. Consistent with our goal of reducing the errors associated with identifying false-positives, we probed three separate arrays with three separate preps of the GST fusion tag alone. Potentially non-specificly interacting peptides (so-called ‘sticky’ peptides) were identified as any that bound to GST with above mean intensity in two out of three separate trials. This approach identifies any peptides which interact with GST or either of the recognition antibodies, a known confounding factor for downstream analysis. This conservative approach allows us to score many significant peptides as ‘binders’ which may have been indeterminate before when incorporating the ‘sticky’ peptides into the array average. […]

panel of 50 SH2 domains = assay: SPOT peptide array probed with each of 50 GST-SH2 domains; settings: SH2 domains with intensity >3X array mean; GST-SH2 0.25 μM, 1 mM DTT
Outline: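 Membrane SPOT arrays of 192 phosphotyrosine 11-mer peptides (four residues N-terminal, six C-terminal to pTyr) probed with GST-SH2 fusions, detected by anti-GST plus near-infrared secondary antibody. Spots >3-fold array mean scored positive, below mean negative, 1–3× indeterminate; peptides binding GST alone above mean in two of three trials flagged as sticky.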

Crk SH2 domain = Crk SH2 domain (Homo sapiens, UniProt P46108); assay: SPOT peptide array; settings: GST-SH2 0.25 μM, membrane-bound peptide, 1 mM DTT, LiCor read-out
Excerpt: as §1, §2

Grb2 SH2 domain = Grb2 SH2 domain (Homo sapiens, UniProt P62993); assay: SPOT peptide array; settings: GST-SH2 0.25 μM, membrane-bound peptide, 1 mM DTT, LiCor read-out
Excerpt: as §1, §2

Plcγ-C SH2 domain = assay: SPOT peptide array; settings: GST-SH2 0.25 μM; for Array positive: membrane-bound peptide, 1 mM DTT, LiCor read-out
Excerpt: as §1, §2

Ptpn11_N SH2 domain = molecular target: T1, Ptpn11_N SH2 domain (Homo sapiens, UniProt Q06124); assay: SPOT peptide array; settings: GST-SH2 0.25 μM; for Array positive: membrane-bound peptide, 1 mM DTT, LiCor read-out
T1 sequence (Q06124 6-102 limits assumed): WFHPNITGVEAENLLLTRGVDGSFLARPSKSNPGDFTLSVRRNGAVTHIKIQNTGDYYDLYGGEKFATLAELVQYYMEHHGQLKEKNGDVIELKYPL
Excerpt: as §1, §2

[1] = spot intensity as factor of array mean

Grb2 SH2 domain, sequence (P62993 60-152 limits assumed): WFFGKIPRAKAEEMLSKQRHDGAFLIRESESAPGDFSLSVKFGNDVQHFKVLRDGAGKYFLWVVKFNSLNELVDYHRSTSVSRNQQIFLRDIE
Crk SH2 domain, sequence (P46108 13-118 limits assumed): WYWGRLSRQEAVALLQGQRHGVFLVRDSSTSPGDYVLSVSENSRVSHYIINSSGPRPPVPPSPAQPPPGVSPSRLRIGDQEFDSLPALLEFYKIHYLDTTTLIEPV

“EDLSpYGDVPPG [11-mer phosphotyrosine peptide, IRS-1 (Y151)]” was tested, and the Array positive (Nck1 SH2 domain) was “No (Peptide spots with average intensity values between 1X-3X the array mean were defined as ‘indeterminate’. Those with intensities below 1X mean were defined as array negative)”, the “Peptide array intensity (X mean)” value (Nck1 SH2 domain; [1]) was 1.76 X Mean and the “Other SH2 domains bound (additional array-positive SH2 domains)” value (“Other SH2 domains bound” below) (panel of 50 SH2 domains) was 1.76X Mean Abl1, Blk, Fyn, Lck, Lyn, Sh2d1b, Shc1, Ship2, Slnk, Yes.

In the case of “EQDEYDIPRHL [11-mer peptide, p130Cas (Y234)]”, the Array positive (Crk SH2 domain) is reported as “Yes (Array-positive binding was ascribed to interactions with intensities greater than three times the array mean)” and the “Other SH2 domains bound” value (panel of 50 SH2 domains) is reported as “Brk, Crkl, Fyn, Lck, Lyn, Shc1, Yes”.

“DDPSpYVNVQNL [11-mer phosphotyrosine control peptide, ShcA (Y426), reference compound]” was tested, and the Array positive (Grb2 SH2 domain) was “Yes (Array-positive binding was ascribed to interactions with intensities greater than three times the array mean)” and the “Other SH2 domains bound” value (panel of 50 SH2 domains) was “Gads, Grap”.

“ALLNpYENLPSL [11-mer phosphotyrosine peptide, FRS2 (Y349)]” was tested, and the Array positive (Grb2 SH2 domain) was “Yes (Array-positive binding was ascribed to interactions with intensities greater than three times the array mean)” and the “Other SH2 domains bound” value (panel of 50 SH2 domains) was “Abl1, Abl2, Gads, Grap, Grb2, Grb7, PI3K1_C, Sh2d2a, Sh3bp2”.

In the case of “NPGFpYVEANPM [11-mer phosphotyrosine peptide, PLCγ1 (Y783)]”, the Array positive (Plcγ-C SH2 domain) is reported as “No (Peptide spots with average intensity values between 1X-3X the array mean were defined as ‘indeterminate’. Those with intensities below 1X mean were defined as array negative)”, the “Peptide array intensity (X mean)” value (Plcγ-C SH2 domain; [1]) is reported as 1.03 X Mean and the “Other SH2 domains bound” value (panel of 50 SH2 domains) is reported as “PLCγ_C at 1.03X mean; Zap70_N”.

In the case of “PMHNpYVNTENV [11-mer phosphotyrosine peptide, FRS2 (Y392)]”, the Array positive (Grb2 SH2 domain) is reported as “Yes (Array-positive binding was ascribed to interactions with intensities greater than three times the array mean)” and the “Other SH2 domains bound” value (panel of 50 SH2 domains) is reported as “Gads, Grap”.

For “PQDIYDVPPVR [11-mer peptide, P130Cas (Y249)]”, the Array positive (Crk SH2 domain) was “Yes (Array-positive binding was ascribed to interactions with intensities greater than three times the array mean)” and the “Other SH2 domains bound” value (panel of 50 SH2 domains) was “Crkl, Zap70_N”.

“SDDDpYDDVDIP [11-mer phosphotyrosine control peptide, HPK1 (Y379), reference compound]” was tested, and the Array positive (Nck1 SH2 domain) was “Yes (Array-positive binding was ascribed to interactions with intensities greater than three times the array mean)” and the “Other SH2 domains bound” value (panel of 50 SH2 domains) was “Fer, SLNK (similar to BLNK and SLP76)”.

“TRDIpYETDpYpYR [triply phosphorylated peptide, InsR (Y1185,89,90)]” was tested, and the Array positive (Plcγ-C SH2 domain) was “Yes (Array-positive binding was ascribed to interactions with intensities greater than three times the array mean)” and the “Other SH2 domains bound” value (panel of 50 SH2 domains) was “Crk, Crkl, Fer, Grb7, PI3K1_C”.

In the case of “GGEFpYGYMTMD [11-mer phosphotyrosine peptide, IRS-2 (Y540)]”, the Array positive (Plcγ-C SH2 domain) is reported as “Yes (Array-positive binding was ascribed to interactions with intensities greater than three times the array mean)” and the “Other SH2 domains bound” value (panel of 50 SH2 domains) is reported as “Dapp1, Grb7”.

“ATDDpYAVPPPR [11-mer phosphotyrosine peptide, p62DOK1 (Y409), similar to p130Cas (Y410)]” was tested, and the Array positive (Crk SH2 domain) was “Yes (Array-positive binding was ascribed to interactions with intensities greater than three times the array mean)” and the “Other SH2 domains bound” value (panel of 50 SH2 domains) was “Crkl, Hck”.

“RQLNpYIQVDLE [11-mer phosphotyrosine peptide, FRS2 (Y436)]” was tested, and the Array positive (Ptpn11_N SH2 domain) was “Yes (Array-positive binding was ascribed to interactions with intensities greater than three times the array mean)” and the “Other SH2 domains bound” value (panel of 50 SH2 domains) was “Itk, Mist, PLCγ_C, Rasa1_N, Shb, Shd, She, Syk_C”.

“NKLVpYENINGL [11-mer phosphotyrosine peptide, FRS2 (Y306)]” was tested, and the Array positive (Grb2 SH2 domain) was “Yes (Array-positive binding was ascribed to interactions with intensities greater than three times the array mean)” and the “Other SH2 domains bound” value (panel of 50 SH2 domains) was “Grap, Grb7, Sh2d2a”.

In the case of “PNGDpYLNVSPS [11-mer phosphotyrosine peptide, IRS-2 (Y766)]”, the Array positive (Grb2 SH2 domain) is reported as “Yes (Array-positive binding was ascribed to interactions with intensities greater than three times the array mean)” and the “Other SH2 domains bound” value (panel of 50 SH2 domains) is reported as “Sh2d1b, Vav1”.

“DPNGpYMMMSPS [11-mer phosphotyrosine peptide, IRS-1 (Y662)]” was tested, and the Array positive (Ptpn11_N SH2 domain) was “No (Peptide spots with average intensity values between 1X-3X the array mean were defined as ‘indeterminate’. Those with intensities below 1X mean were defined as array negative)” and the “Peptide array intensity (X mean)” value (Ptpn11_N SH2 domain; [1]) was 0.54 X Mean.

“QVHTpYVNTTGV [11-mer phosphotyrosine peptide, FRS2 (Y196)]” was tested, and the Array positive (Grb2 SH2 domain) was “Yes (Array-positive binding was ascribed to interactions with intensities greater than three times the array mean)” and the “Other SH2 domains bound” value (panel of 50 SH2 domains) was “Abl2, Gads, Grap, PI3K1_C”.

— PMC3514216, “SRC Homology 2 Domain Binding Sites in Insulin, IGF-1 and FGF receptor mediated signaling networks reveal an extensive potential interactome” (Cell Communication and Signaling : CCS, 2012)
